This test deals with human PDE10A (Homo sapiens (Human), UniProt Q9Y233). Kind of test: human PDE10A full length Scintillation Proximity Assay (SPA). Type of test: biochemical. The settings on record: 50 nM cGMP and 50 nM [3H]-cGMP, 20 minutes at room temperature; read-out: PDE10A inhibition IC50. An outline of the steps:
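Full-length enzyme incubated with compounds; reaction started with cGMP plus [^3H]-cGMP substrate and run 20 min at room temperature. Stopped with yttrium silicate SPA beads in 18 mM zinc sulphate, 1 h shaking, then scintillation counting; background from enzyme-free wells.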

The structures appear in SMILES notation.

Chain of human PDE10A (Q9Y233 other isoform, or with tags, fused parts or gaps): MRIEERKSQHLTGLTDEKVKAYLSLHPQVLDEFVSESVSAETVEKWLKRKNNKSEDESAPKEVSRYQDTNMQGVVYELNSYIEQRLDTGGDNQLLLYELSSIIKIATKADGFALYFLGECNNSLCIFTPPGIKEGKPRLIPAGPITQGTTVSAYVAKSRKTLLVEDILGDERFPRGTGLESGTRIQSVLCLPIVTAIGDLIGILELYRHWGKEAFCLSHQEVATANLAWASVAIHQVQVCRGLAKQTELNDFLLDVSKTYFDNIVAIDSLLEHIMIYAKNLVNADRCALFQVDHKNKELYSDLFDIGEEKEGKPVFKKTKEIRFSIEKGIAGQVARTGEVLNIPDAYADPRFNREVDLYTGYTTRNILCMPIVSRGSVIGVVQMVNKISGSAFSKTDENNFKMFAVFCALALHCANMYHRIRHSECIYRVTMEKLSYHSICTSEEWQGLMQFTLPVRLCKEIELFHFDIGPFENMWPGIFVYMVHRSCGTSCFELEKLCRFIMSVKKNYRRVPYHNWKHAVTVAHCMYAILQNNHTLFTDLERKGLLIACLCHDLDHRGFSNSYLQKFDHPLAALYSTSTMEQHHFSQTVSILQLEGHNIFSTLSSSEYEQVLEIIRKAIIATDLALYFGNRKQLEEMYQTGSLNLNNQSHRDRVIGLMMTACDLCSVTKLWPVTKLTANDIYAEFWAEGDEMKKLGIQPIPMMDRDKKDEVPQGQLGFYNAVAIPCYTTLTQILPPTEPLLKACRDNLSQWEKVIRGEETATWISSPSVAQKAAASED

As for `CN(C)C(=O)c1c(F)cccc1NC(=O)c1nc(C2CC2)cnc1Nc1cncnc1` [Example 308, 6-Cyclopropyl-3-(pyrimidin-5-ylamino)-pyrazine-2-carboxylic acid (2-dimethylcarbamoyl-3-fluoro-phenyl)-amide], the IC50 is 0.9 nM.

As for `O=C(Nc1cnccc1C(=O)N1CC(O)C1)c1nc(C2CC2)ccc1Nc1cncnc1` [Example 82, 6-Cyclopropyl-3-(pyrimidin-5-ylamino)-pyridine-2-carboxylic acid [4-(3-hydroxy-azetidine-1-carbonyl)-pyridin-3-yl]-amide], the half-inhibitory concentration (IC50) was 58.5 nM.

As to `COc1cccc(NC(=O)c2nc(C3CC3)cnc2Nc2cncnc2)c1C(=O)N(C)C` [Example 206, 6-Cyclopropyl-3-(pyrimidin-5-ylamino)-pyrazine-2-carboxylic acid (2-dimethylcarbamoyl-3-methoxy-phenyl)-amide], the IC50 stood at 12.2 nM.

`O=C(Nc1sccc1C(=O)N1CCOCC1)c1nc(C2CC2)ccc1Nc1cncnc1` [Example 90, 6-Cyclopropyl-3-(pyrimidin-5-ylamino)-pyridine-2-carboxylic acid [3-(morpholine-4-carbonyl)-thiophen-2-yl]-amide]: the IC50 was found to be 0.4 nM.

Take `CNC(=O)c1c(NC(=O)c2nc(C3CCC3)ncc2Nc2cncnc2)cnn1C` [Example 193, 2-Cyclobutyl-5-(pyrimidin-5-ylamino)-pyrimidine-4-carboxylic acid (1-methyl-5-methylcarbamoyl-1H-pyrazol-4-yl)-amide]: the half-inhibitory concentration (IC50) is 11.7 nM.

Take `CNC(=O)c1c(NC(=O)c2nc(C(C)(C)O)cnc2Nc2cncnc2)cnn1C` [Example 341, 6-(1-Hydroxy-1-methyl-ethyl)-3-(pyrimidin-5-ylamino)-pyrazine-2-carboxylic acid (1-methyl-5-methylcarbamoyl-1H-pyrazol-4-yl)-amide]: the IC50 was 28 nM.

For the compound `CC(C)N(C)C(=O)c1nn(C)cc1NC(=O)c1nc(C2CC2)ccc1Nc1cncnc1` [Example 20, 6-Cyclopropyl-3-(pyrimidin-5-ylamino)-pyridine-2-carboxylic acid [3-(isopropyl-methyl-carbamoyl)-1-methyl-1H-pyrazol-4-yl]-amide], the IC50 was 22.1 nM.
